Assay results published in patent US11518739B2, “Sulfonamide carboxamide compounds” (Inflazome Limited, priority 2017, dated 2022).
Where a name gives a salt, the structure may show the parent alone.

Experiments:
[1] = target: T1, NLRP3 (Homo sapiens, UniProt Q96P20); assay: Human whole blood IL-1β release assay (LPS + nigericin, AlphaLisa); format: cell-based; parameters: Plate out 80 μl of whole blood containing 1 μg/ml of LPS in 96-well, clear bottom cell culture plate; from tissue; host or cells: human whole blood from healthy donors (Li-heparin); settings: NLRP3 inhibitory activity in human whole blood, 1 μg/ml LPS, 10 μM nigericin, read-out: HWB IC50
T1 sequence (Q96P20 whole entry): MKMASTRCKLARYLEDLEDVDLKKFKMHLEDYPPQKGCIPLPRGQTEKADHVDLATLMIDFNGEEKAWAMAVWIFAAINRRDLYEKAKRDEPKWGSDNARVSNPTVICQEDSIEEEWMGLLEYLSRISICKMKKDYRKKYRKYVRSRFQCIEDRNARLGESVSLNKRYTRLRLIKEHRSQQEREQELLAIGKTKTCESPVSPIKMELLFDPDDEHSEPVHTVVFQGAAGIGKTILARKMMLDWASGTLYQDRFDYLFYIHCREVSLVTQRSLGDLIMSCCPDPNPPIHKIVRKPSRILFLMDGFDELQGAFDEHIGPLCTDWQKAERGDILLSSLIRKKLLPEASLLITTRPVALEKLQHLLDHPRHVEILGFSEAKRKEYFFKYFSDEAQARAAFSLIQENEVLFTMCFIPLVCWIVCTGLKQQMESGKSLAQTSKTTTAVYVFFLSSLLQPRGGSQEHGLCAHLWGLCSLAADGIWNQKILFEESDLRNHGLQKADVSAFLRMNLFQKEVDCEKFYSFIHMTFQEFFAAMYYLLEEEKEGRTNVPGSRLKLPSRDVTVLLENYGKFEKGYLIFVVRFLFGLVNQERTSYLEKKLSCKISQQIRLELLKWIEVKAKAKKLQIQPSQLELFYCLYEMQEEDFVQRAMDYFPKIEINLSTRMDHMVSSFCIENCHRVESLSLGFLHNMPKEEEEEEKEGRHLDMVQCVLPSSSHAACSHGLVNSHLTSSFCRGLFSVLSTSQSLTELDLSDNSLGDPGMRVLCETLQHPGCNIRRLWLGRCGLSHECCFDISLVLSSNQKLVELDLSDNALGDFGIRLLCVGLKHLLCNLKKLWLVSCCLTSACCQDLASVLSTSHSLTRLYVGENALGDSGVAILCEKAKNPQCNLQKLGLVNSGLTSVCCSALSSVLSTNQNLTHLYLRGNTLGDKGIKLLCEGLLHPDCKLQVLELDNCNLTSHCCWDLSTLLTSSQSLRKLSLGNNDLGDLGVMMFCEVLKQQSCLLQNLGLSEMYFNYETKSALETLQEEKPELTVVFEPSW
Procedure: For systemic delivery, the ability to inhibit NLRP3 when the compounds are present within the bloodstream is of great importance. For this reason, the NLRP3 inhibitory activity of a number of compounds in human whole blood was investigated in accordance with the following protocol.
Human whole blood in Li-heparin tubes was obtained from healthy donors from a volunteer donor panel. • 1. Plate out 80 μl of whole blood containing 1 μg/ml of LPS in 96-well, clear bottom cell culture plate (Corning #3585) • 2. Add 10 μl compound (8 points half-log dilution with 10 μM top dose) or vehicle (DMSO 0.1% FAC) to the appropriate wells • 3. Incubate for 3 hrs at 37° C., 5% CO2 • 4. Add 10 μl nigericin (Sigma #N7143) (10 μM FAC) to all wells • 5. Incubate for 1 hr at 37° C., 5% CO2 • 6. At the end of the incubation period, spin plates at 300×g for 5 mins to pellet cells and remove 20 μl of supernatant and add to 96-well v-bottom plates for IL-1β analysis (note: these plates containing the supernatants can be stored at −80° C. to be analysed at a later date) • 7. IL-1β was measured according to the manufacturer protocol (Perkin Elmer-AlphaLisa IL-1 Kit AL220F-5000) • 8. IC50 data is fitted to a non-linear regression equation (log inhibitor vs response-variable slope 4-parameters)

[2] = target: T1, NLRP3; assay: THP-1 cells pyroptosis assay (LPS-primed, nigericin-triggered, resazurin readout); format: cell-based; parameters: Seed THP-1 cells (25,000 cells/well) containing 1.0 μg/ml LPS in 40 μl of RPMI medium; host or cells: THP-1 cells, LPS-primed, nigericin-triggered; settings: NLRP3 inhibitory activity in THP-1 cells, 1.0 μg/ml LPS, 5 μM nigericin
Procedure: THP-1 cells (ATCC #TIB-202) were grown in RPMI containing L-glutamine (Gibco #11835) supplemented with ImM sodium pyruvate (Sigma #S8636) and penicillin (100 units/ml)/streptomycin (0.1 mg/ml) (Sigma #P4333) in 10% Fetal Bovine Serum (FBS) (Sigma #F0804). The cells were routinely passaged and grown to confluency ([…]). On the day of the experiment, THP-1 cells were harvested and resuspended into RPMI medium (without FBS). The cells were then counted and viability (>90%) checked by Trypan blue (Sigma #T8154). Appropriate dilutions were made to give a concentration of 625,000 cells/ml. To this diluted cell solution was added LPS (Sigma #L4524) to give a 1 μg/ml Final Assay Concentration (FAC). […] of the final preparation was aliquoted into each well of a 96-well plate. The plate thus prepared was used for compound screening.
The following method step-by-step assay was followed for compound screening. • 1. Seed THP-1 cells (25,000 cells/well) containing 1.0 μg/ml LPS in 40 μl of RPMI medium (without FBS) in 96-well, black walled, clear bottom cell culture plates coated with poly-D-lysine (VWR #734-0317) • 2. Add 5 μl compound (8 points half-log dilution, with 10 μM top dose) or vehicle (DMSO 0.1% FAC) to the appropriate wells • 3. Incubate for 3 hrs at 37° C. in 5% CO2 • 4. Add 5 μl nigericin (Sigma #N7143) (FAC 5 μM) to all wells • 5. Incubate for 1 hr at 37° C. and 5% CO2 • 6. At the end of the incubation period, spin plates at 300×g for 3 mins and remove supernatant • 7. Then add 50 μl of resazurin (Sigma #R7017) (FAC 100 μM resazurin in RPMI medium without FBS) and incubate plates for a further 1-2 hrs at 37° C. and 5% CO2 • 8. Plates were read in an Envision reader at Ex 560 nm and Em 590 nm • 9. IC50 data is fitted to a non-linear regression equation (log inhibitor vs response-variable slope 4-parameters)

IC50 [1]: 5 to 7.5 µM
IC50 [2]: ≤ 1 µM
Compound: Cc1ccc(CS(=O)(=O)NC(=O)Nc2c3c(cc4c2CCC4)CCC3)cc1 [Example 14, N-((1,2,3,5,6,7-Hexahydro-s-indacen-4-yl)carbamoyl)-1-(p-tolyl)methanesulfonamide, Sodium Salt]
